One may read the IC50 as the point on the concentration scale where inhibition reaches its midpoint.

Assay [1] relates to IL-1β release in U937 cells after NLRP3 activation. The assay can be described thus: IC50 determination of IL-1β release inhibition in U937 cells. The class given is cell-based. The conditions noted are these: Homo sapiens, read-out: IL-1β IC50 (nM) U937 cells. Summed up: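 PMA-differentiated U937 cells (90 h) were primed 5 h with 1 μg/mL LPS, pre-incubated 30 min with compound, then stimulated with nigericin for 1 h. Supernatant IL-1β was quantified by MSD electrochemiluminescence. IC50 was derived from IL-1β concentration, with duplicate wells per compound.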

Assay [2] concerns IL-1β release in THP-1-ASC-GFP cells after NLRP3 activation. In words: IC50 determination of IL-1β release inhibition in THP-1-ASC-GFP cells. The class given is cell-based. The conditions noted are these: THP1-ASC-GFP, read-out: IL-1β IC50 (nM) THP1 cells. As for the experimental part: Example 78: IC50 Determination of IL-1β Release Inhibition in THP-1-ASC-GFP Cells The compounds were tested for their ability to inhibit the IL-1β release in the THP-1-ASC-GFP cells after NLRP3 activation. THP1-ASC-GFP cells (Invivogen […] thawed following Invivogen's initial culture procedure. […] The growth medium was composed of RPM1640 medium (Gibco 32404-014), 10% heat inactivated (HI) serum (Gibco A3840102), Pen/Strep (Quality Biologics 118-089-721), 10 mM Hepes (Quality Biologics 118-089-721), 2 mM Glutamax (GIBCO 35050-061), 100 μg/mL normocin (Invivogen ant-nr), 100 μg/mL Zeocin (Invivogen ant-zn). The growth medium was freshly prepared once a week and sterile filtered. Assay medium consisted of RPMI 1640 medium, 10 mM Hepes, 2 mM Glutamax and Pen/Strep. To the assay medium, 1 μg/mL LPS (Invivogen tlrl-3pelps) was added. A cell suspension was prepared with assay medium and LPS at 1.25M cells per mL. With an electronic pipet, 80 μl of cell suspension was added to U bottom 96 well polystyrene plates (VWR 10062-902) leaving columns 1 and 2 empty. The plates were placed in the incubator for 4 hours. […] DMSO). An hour prior to the end of LPS incubation, a separate 96 deep well plate, Plate B, was prepared with 400 μL of assay media per well, then 2 μL of the stock DMSO solution from Plate A was added to each corresponding well. Plate B was covered to avoid media evaporation. In a 50 mL tube, a solution of nigericin in assay media at […] concentration was prepared. To a new 96 deep well plate, Plate C, 200 μL of this nigericin containing media was dispensed to each well and […] of the test compounds from Plate A to each corresponding well was added. Plate C was covered to avoid media evaporation. After 4 hours of priming, all the media from the LPS treated THP-1 cells in the initial U bottom plate was removed manually. To this plate of primed cells, 80 μL/well test compounds from Plate B was added in duplicate columns (5 compounds tested per plate). The plate was placed in an incubator for 30 min. […] The plate was placed back in the incubator for 1 hour. At the end of 1 hour, the supernatant from this test plate was transferred to a new 96 well V bottom polypropylene plate which was frozen immediately at -80° C. The plate was transferred to -20° C. the next day and awaiting further determination of cytokine IL-1β level. The release of IL-1β into the cell media was determined by MSD® Multi-Spot Assay System (V-Plex, IL-1B kit, […]-4). Following the manufacture's protocol and using the Alternate Protocol 3, Dilute-In-Plate protocol specifically, the level of IL-1β in the above collected supernatant plate was measured as electrochemiluminescent signals. Using MSD DISCOVERY WORKBENCH® analysis software, the signals were converted to the concentration of IL-1β in each well. The IC50 values of the compounds were calculated using the Graph Pad Prism software based on the […] concentration determined. The detection range of IL-1β using MSD kit was approximately […] (based on various lots of standards purchased from MSD).

Setting [3] is: U-937, PMA-differentiated U937 cells, LPS priming 5 h, nigericin, average of at least three experiments.
Setting [4] is: THP-1-ASC-GFP cells, LPS priming 4 h, nigericin, average of at least three experiments.

Read-outs that look alike come from different tables or passages of the source. Where only a bound is given, the exact number is not on record here.

On to `Cc1oc(S(=O)(=O)NC(=O)Nc2c3c(c(F)c4c2CCC4)CCC3)cc1CN1C[C@H](O)[C@@H](F)C1` [Example 41, N-((8-fluoro-1,2,3,5,6,7-hexahydro-s-indacen-4-yl)carbamoyl)-4-(((3S,4S)-3-fluoro-4-hydroxypyrrolidin-1-yl)methyl)-5-methylfuran-2-sulfonamide], for which the concentration for half-maximal inhibition (IC50) in assay [1] (setting [3]) and in assay [2] (setting [4]) was 5 to 50 nM each time.
In the case of `CC(C)(O)c1cc(S(=O)(=O)NC(=O)Nc2c3c(c(F)c4c2CCC4)CCC3)oc1COC1CNC1` [Example 71, 5-((azetidin-3-yloxy)methyl)-N-((8-fluoro-1,2,3,5,6,7-hexahydro-s-indacen-4-yl)carbamoyl)-4-(2-hydroxypropan-2-yl)furan-2-sulfonamide], the half-maximal inhibitory concentration (IC50) in assay [1] (setting [3]) was 5 to 50 nM; in assay [2] (setting [4]), below 5 nM.
With `Cc1oc(S(=N)(=O)NC(=O)Nc2c3c(cc4c2CCC4)CCC3)cc1CN1CC[C@@H](CO)C1` (stereo partly drawn) [Example 5, N-((1,2,3,5,6,7-hexahydro-s-indacen-4-yl)carbamoyl)-4-(((R)-3-(hydroxymethyl)pyrrolidin-1-yl)methyl)-5-methylfuran-2-sulfonimidamide], the IC50 in assay [1] (setting [3]) and in assay [2] (setting [4]) was below 5 nM throughout.
As to `Cc1oc(S(=N)(=O)NC(=O)Nc2c3c(cc4c2CCC4)CCC3)cc1CN1CCC[C@@H]1CO` (stereo partly drawn) [Example 7, N-((1,2,3,5,6,7-hexahydro-s-indacen-4-yl)carbamoyl)-4-(((R)-2-(hydroxymethyl)pyrrolidin-1-yl)methyl)-5-methylfuran-2-sulfonimidamide], the IC50 in assay [1] (setting [3]) and in assay [2] (setting [4]) was below 5 nM throughout.
As to `CC(C)n1nc(S(=N)(=O)NC(=O)Nc2c3c(cc4c2CCC4)CCC3)cc1CN1CC(O)C1` (stereo not shown) [Example 19, N-((1,2,3,5,6,7-hexahydro-s-indacen-4-yl)carbamoyl)-5-((3-hydroxyazetidin-1-yl)methyl)-1-isopropyl-1H-pyrazole-3-sulfonimidamide], the IC50 was 5 to 50 nM in assay [1] (setting [3]) and below 5 nM in assay [2] (setting [4]).
With `Cc1oc(S(=O)(=O)NC(=O)Nc2c3c(c(F)c4c2CCC4)CCC3)cc1CN1CC[C@H](O)C1` [Example 38, (S)—N-((8-fluoro-1,2,3,5,6,7-hexahydro-s-indacen-4-yl)carbamoyl)-4-((3-hydroxypyrrolidin-1-yl)methyl)-5-methylfuran-2-sulfonamide], the IC50 in assay [1] (U-937, 5 h) fell in the range of 50 to 500 nM; in assay [2] (4 h), 5 to 50 nM.
As to `CC(C)n1nc(S(=N)(=O)NC(=O)Nc2c3c(cc4c2CCC4)CCC3)cc1CN1CCC[C@H]1CO` (stereo partly drawn) [Example 21, N-((1,2,3,5,6,7-hexahydro-s-indacen-4-yl)carbamoyl)-5-(((S)-2-(hydroxymethyl)pyrrolidin-1-yl)methyl)-1-isopropyl-1H-pyrazole-3-sulfonimidamide], the IC50 in assay [1] (setting [3]) and in assay [2] (setting [4]) was below 5 nM each time.
`Cc1oc(S(=N)(=O)NC(=O)Nc2c3c(cc4c2CCC4)CCC3)cc1CN(C)CC1(O)CC1` (stereo not shown) [Example 11, N-((1,2,3,5,6,7-hexahydro-s-indacen-4-yl)carbamoyl)-4-((((1-hydroxycyclopropyl)methyl)(methyl)amino)methyl)-5-methylfuran-2-sulfonimidamide]: the IC50 in assay [1] (setting [3]) was 5 to 50 nM; in assay [2] (setting [4]), below 5 nM.
Turning to `N=S(=O)(NC(=O)Nc1c2c(cc3c1CCC3)CCC2)c1cc(CN2CC(O)C2)co1` (stereo not shown) [Example 1, N-((1,2,3,5,6,7-hexahydro-s-indacen-4-yl)carbamoyl)-4-((3-hydroxyazetidin-1-yl)methyl)furan-2-sulfonimidamide], the IC50 in assay [1] (setting [3]) is 5 to 50 nM; in assay [2] (setting [4]) it was below 5 nM.
With `Cc1oc(S(=N)(=O)NC(=O)Nc2c3c(cc4c2CCC4)CCC3)cc1CN` (stereo not shown) [Example 24, 4-(aminomethyl)-N-((1,2,3,5,6,7-hexahydro-s-indacen-4-yl)carbamoyl)-5-methylfuran-2-sulfonimidamide], the values for the IC50 in assay [1] (setting [3]) and in assay [2] (setting [4]) were 5 to 50 nM and below 5 nM, respectively.
In the case of `Cc1oc(S(=O)(=O)NC(=O)Nc2c3c(c(F)c4c2CCC4)CCC3)cc1CN1CCC[C@H]1CO` [Example 44, (S)-N-((8-fluoro-1,2,3,5,6,7-hexahydro-s-indacen-4-yl)carbamoyl)-4-((2-(hydroxymethyl)pyrrolidin-1-yl)methyl)-5-methylfuran-2-sulfonamide], the IC50 in assay [1] (setting [3]) and in assay [2] (setting [4]) was 5 to 50 nM each time.
In the case of `O=C(Nc1c2c(cc3c1CCC3)CCC2)NS(=O)(=O)c1cc2c(o1)CCN(CCCO)C2` [Example 74, N-((1,2,3,5,6,7-hexahydro-s-indacen-4-yl)carbamoyl)-5-(3-hydroxypropyl)-4,5,6,7-tetrahydrofuro[3,2-c]pyridine-2-sulfonamide], the IC50 in assay [1] (setting [3]) and in assay [2] (setting [4]) was 5 to 50 nM each time.
`CNCc1coc([S@@](=N)(=O)NC(=O)Nc2c3c(cc4c2CCC4)CCC3)c1` (single isomer, unassigned) [Example 76]: the half-inhibitory concentration (IC50) in assay [1] (setting [3]) and in assay [2] (setting [4]) was below 5 nM in each case.
Regarding `Cc1cc(S(=O)(=O)NC(=O)Nc2c3c(c(F)c4c2CCC4)CCC3)oc1CN(C)CC1(O)CCC1` [Example 50, N-((8-fluoro-1,2,3,5,6,7-hexahydro-s-indacen-4-yl)carbamoyl)-5-((((1-hydroxycyclobutyl)methyl)(methyl)amino)methyl)-4-methylfuran-2-sulfonamide], the IC50 in assay [1] (setting [3]) and in assay [2] (setting [4]) was 5 to 50 nM throughout.
Take `Cc1oc([S@@](=N)(=O)NC(=O)Nc2c3c(cc4c2CCC4)CCC3)cc1CNC(C)C` (single isomer, unassigned) [Example 26, formic acid]: the concentration for half-maximal inhibition (IC50) in assay [1] (setting [3]) and in assay [2] (setting [4]) was 50 to 500 nM each time.
On to `Cc1oc(S(=O)(=O)NC(=O)Nc2c3c(c(F)c4c2CCC4)CCC3)cc1CN(C)CC1(O)CCC1` [Example 35, N-((8-fluoro-1,2,3,5,6,7-hexahydro-s-indacen-4-yl)carbamoyl)-4-((((1-hydroxycyclobutyl)methyl)(methyl)amino)methyl)-5-methylfuran-2-sulfonamide], for which the half-maximal inhibitory concentration (IC50) in assay [1] (setting [3]) and in assay [2] (setting [4]) was below 5 nM each time.
As to `Cc1oc([S@@](=N)(=O)NC(=O)Nc2c3c(c(F)c4c2CCC4)CCC3)cc1CNC(C)C` (single isomer, unassigned) [Example 28], the IC50 in assay [1] (setting [3]) and in assay [2] (setting [4]) was 50 to 500 nM in each case.
As for `Cc1cc(S(=O)(=O)NC(=O)Nc2c3c(c(F)c4c2CCC4)CCC3)oc1CN1CC[C@H](O)C1` [Example 51, (S)-N-((8-fluoro-1,2,3,5,6,7-hexahydro-s-indacen-4-yl)carbamoyl)-5-((3-hydroxypyrrolidin-1-yl)methyl)-4-methylfuran-2-sulfonamide], the IC50 in assay [1] (setting [3]) was 5 to 50 nM; in assay [2] (setting [4]), below 5 nM.
As to `CC(C)NCc1coc(S(=N)(=O)NC(=O)Nc2c3c(cc4c2CCC4)CCC3)c1` (stereo not shown) [Example 23, N-((1,2,3,5,6,7-hexahydro-s-indacen-4-yl)carbamoyl)-4-((isopropylamino)methyl)furan-2-sulfonimidamide], the IC50 in assay [1] (U-937, 5 h) is below 5 nM; in assay [2] (4 h), below 5 nM.
As to `Cc1oc(S(=O)(=O)NC(=O)Nc2c3c(c(Cl)c4c2CCC4)CCC3)cc1CN(C)CC1(O)CCC1` [Example 48, N-((8-chloro-1,2,3,5,6,7-hexahydro-s-indacen-4-yl)carbamoyl)-4-((((1-hydroxycyclobutyl)methyl)(methyl)amino)methyl)-5-methylfuran-2-sulfonamide], the IC50 in assay [1] (setting [3]) was 5 to 50 nM; in assay [2] (setting [4]) it was below 5 nM.

(Values after patent publication US20250388568A1, “NLRP3 INHIBITORS” (Kodiak Sciences Inc., priority 2022, published 2025).)
